Laboratory results published in BigSolDB 2.1.

CC1(C)CO[P+]([O-])(Oc2c(Br)cc(Br)cc2Br)OC1
solubility (mole fraction)
Details | in THF | in acetone | in acetonitrile | in chloroform | in dichloromethane | in ethanol | in ethyl acetate | in methanol | in methyl acetate | in toluene
288.15 K | – | – | – | 0.0801 | 0.0492 | – | – | – | 0.0053 | –
293.15 K | 0.024 | 0.0131 | 0.00399 | 0.0844 | 0.0546 | 0.0025 | 0.00497 | 0.00195 | 0.00649 | 0.00784
298.15 K | 0.0258 | 0.0153 | 0.00504 | 0.0882 | 0.0594 | 0.00298 | 0.00564 | 0.0024 | 0.00765 | 0.009
303.15 K | 0.0303 | 0.0171 | – | 0.0947 | 0.0653 | 0.00358 | – | 0.00296 | 0.00867 | 0.0103
308.15 K | 0.0329 | 0.0194 | 0.00755 | 0.1 | 0.0712 | 0.00414 | 0.00748 | 0.00354 | 0.0107 | –
313.15 K | 0.0374 | 0.0226 | 0.00936 | 0.106 | – | 0.00465 | 0.00853 | 0.00424 | 0.0119 | 0.0145
318.15 K | 0.0409 | 0.0254 | – | 0.113 | – | 0.00556 | 0.00951 | – | 0.0138 | –
323.15 K | 0.0448 | 0.0295 | 0.0128 | – | – | 0.00643 | 0.0111 | 0.00614 | 0.0163 | 0.0195
328.15 K | – | – | – | 0.124 | – | – | 0.0127 | – | – | –
333.15 K | – | – | 0.0184 | – | – | 0.00795 | 0.0143 | 0.0081 | – | 0.0268
343.15 K | – | – | 0.0265 | – | – | – | – | – | – | 0.0349
